Consider 2 molecules from patent publication US6593094B2, “Compositions to enhance the efficacy and safety of bio-pharmaceutical drugs” (priority 1992, dated 2003).

Structures are written as SMILES.

Data set [1] has as its target T1, beta-1-receptors (Rattus norvegicus, UniProt P18090).
T1 construct: from tissue; host or cells: heart of anesthetized rat, in vivo (left ventricular pressure, dP/dt, heart rate)
The experiment in a line: in vivo cardiac response (dP/dt, LVP, HR) in anesthetized rat during infusion. Particulars: i.v. infusion at varying rates.

The subject of data set [2] is mice. Particulars: i.v. in mice; cited from earlier work.
Data set [3] deals with β2 receptor (Cavia porcellus, UniProt Q8K4Z4). To be noted: calculated from a fit of the isoproterenol control curve. The text has this: It is noted that, in the relevant art, there exists a method for calculating drug efficacy by utilization of easily identifiable biophysical parameters. […] Specifically, the experimental data and the calculated values were compared.
Chain of β2 receptor (Q8K4Z4 whole entry): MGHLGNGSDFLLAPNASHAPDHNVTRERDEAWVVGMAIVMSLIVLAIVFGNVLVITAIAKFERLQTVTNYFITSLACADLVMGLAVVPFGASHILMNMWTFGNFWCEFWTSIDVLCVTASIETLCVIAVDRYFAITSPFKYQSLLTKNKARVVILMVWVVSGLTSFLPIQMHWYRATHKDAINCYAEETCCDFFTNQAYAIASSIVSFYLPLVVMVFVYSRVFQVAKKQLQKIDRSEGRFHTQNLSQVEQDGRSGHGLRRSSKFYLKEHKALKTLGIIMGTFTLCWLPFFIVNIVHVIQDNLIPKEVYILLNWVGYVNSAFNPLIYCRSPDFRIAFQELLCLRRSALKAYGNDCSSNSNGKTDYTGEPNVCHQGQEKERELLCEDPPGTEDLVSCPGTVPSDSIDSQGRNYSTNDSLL

T1 sequence (P18090 whole entry): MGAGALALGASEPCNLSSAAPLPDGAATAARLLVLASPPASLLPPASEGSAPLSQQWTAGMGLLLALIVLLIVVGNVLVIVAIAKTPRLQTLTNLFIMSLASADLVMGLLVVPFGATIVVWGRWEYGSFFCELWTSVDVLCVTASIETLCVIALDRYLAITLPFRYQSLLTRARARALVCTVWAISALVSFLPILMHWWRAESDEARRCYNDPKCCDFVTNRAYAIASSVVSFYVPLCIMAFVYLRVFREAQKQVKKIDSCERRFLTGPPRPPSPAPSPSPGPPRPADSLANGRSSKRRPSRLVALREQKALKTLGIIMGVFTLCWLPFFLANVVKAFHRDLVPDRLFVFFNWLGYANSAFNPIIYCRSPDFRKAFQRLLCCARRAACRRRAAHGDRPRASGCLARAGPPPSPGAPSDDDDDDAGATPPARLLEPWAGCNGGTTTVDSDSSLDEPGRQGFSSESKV

As for `CC(CCc1ccc(O)cc1)NCCc1ccc(O)c(O)c1` (stereo not shown) [dobutamine], the “dP/dT response with increasing dosage” value in data set [1] is on record as “at higher dosages the dP/dT again began to decrease (desensitization)”; in data set [1] (listed as Dob) it was “showed a decline in response”. In data set [2], the LD50 (usually the dose expected to kill half of the subjects tested) was 73 mg/kg.
As for `CC(C)NCC(O)c1ccc(O)c(O)c1` (stereo not shown) [isoproterenol], the “φ=(KDLKDH/2)^−½, value of the maximum of the control curve” value in data set [3] is 7.48 µM.
